Laboratory results published in US20200131144A1, “AMINE OR (THIO)AMIDE CONTAINING LXR MODULATORS” (Phenex-FXR GmbH, priority 2017, published 2020).

Key:
[1] = target: T1, LXRα ligand-binding domain (LBD) (Homo sapiens, UniProt Q13133); experiment: LXR Gal4 reporter transient transfection assay, mammalian two-hybrid, LBD-M2H Gal4α; format: cell-based; conditions: HEK293 cells; inverse agonist unless *
T1 construct: expressed in transfected cells; host or cells: HEK293
T1 sequence (Q13133 155-447): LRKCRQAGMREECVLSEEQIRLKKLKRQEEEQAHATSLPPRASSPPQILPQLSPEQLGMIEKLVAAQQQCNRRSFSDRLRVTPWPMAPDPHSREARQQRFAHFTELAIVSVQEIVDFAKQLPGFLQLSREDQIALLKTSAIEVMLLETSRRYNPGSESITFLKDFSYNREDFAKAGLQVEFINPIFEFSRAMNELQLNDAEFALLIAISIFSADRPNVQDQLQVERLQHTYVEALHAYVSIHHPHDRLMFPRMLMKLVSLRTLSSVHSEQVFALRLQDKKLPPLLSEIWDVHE
Outline: (§1)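 Mammalian two-hybrid read-out: interaction of LXRα or LXRβ (full length or ligand-binding domain, NFkB activation-domain fusions) with GAL4-fused SRC1 or NCoR domains drives GAL4-responsive firefly luciferase in HEK293 cells, normalised by Renilla cotransfection. Compounds given 4 h after transfection, ≤0.2% vehicle, cells lysed after 16 h.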

[2] = target: T2, LXRβ ligand-binding domain (LBD) (Homo sapiens, UniProt P55055, INS174Q); experiment: LXR Gal4 reporter transient transfection assay, mammalian two-hybrid, LBD-M2H Gal4β; format: cell-based; conditions: HEK293 cells; inverse agonist unless *
T2 construct: or LXR (amino acids 156-461); expressed in transfected cells; host or cells: HEK293
T2 sequence (P55055 with tags, fused parts or gaps INS174Q limits assumed): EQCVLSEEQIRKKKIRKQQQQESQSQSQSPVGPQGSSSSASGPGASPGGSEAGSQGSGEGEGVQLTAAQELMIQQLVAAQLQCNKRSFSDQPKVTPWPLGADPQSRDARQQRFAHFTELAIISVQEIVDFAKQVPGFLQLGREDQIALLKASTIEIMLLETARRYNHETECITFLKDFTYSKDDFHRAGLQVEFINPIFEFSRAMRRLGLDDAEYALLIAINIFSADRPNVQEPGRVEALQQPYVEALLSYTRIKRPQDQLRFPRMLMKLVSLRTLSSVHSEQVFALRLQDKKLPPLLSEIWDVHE
Outline: as §1

| EC50 [1] | EC50 [2] | Compound |
| --- | --- | --- |
| < 100 nM | < 100 nM | Cc1ccc2ccccc2c1CN(Cc1ccc(-c2cccc(C(C)(C)C(=O)O)c2)cc1)Cc1ccc(C(F)(F)F)o1 [Example 24, 2-Methyl-2-(4′-((((2-methylnaphthalen-1-yl)methyl)((5-(trifluoromethyl)furan-2-yl)methyl)amino)methyl)-[1,1′-biphenyl]-3-yl)propanoic acid] |
| 100 to 1000 nM | 100 to 1000 nM | Cc1ccc2ccccc2c1C(=O)N(Cc1ccc(-c2cccc(S(=O)(=O)CC(=O)O)c2)cc1)Cc1ccc(C(F)(F)F)o1 [Example 9] |
| < 100 nM | < 100 nM | Cc1ccc2ccccc2c1C(=O)N(Cc1ccc(-c2cc(F)c(CO)c(S(=O)(=O)CC(=O)O)c2)cc1)Cc1ccc(C(F)(F)F)o1 [22/8] |
| 100 to 1000 nM | < 100 nM | Cc1cc(C)c(C(=O)N(Cc2ccc(-c3cccc(C(C)(C)C(=O)O)c3)cc2)Cc2ccc(C(F)(F)F)o2)c(C)c1 [10/1] |
